{"source": "paper PMC13095444", "about": "“Discovery of RGS2-FBXO44 interaction inhibitors using a cell-based NanoBit assay” (Molecular Pharmacology, 2025)", "key": {"[1]": {"tested_on": "HEK-293T-RGS2-FBXO44 NanoBit cells", "experiment": "Cell viability assay (GF-AFC fluorescence) multiplexed with NanoBit", "format": "cell-based, Human", "conditions": "100 μM, 16–18 hours, fresh powder", "protocol": "The cells were plated in DMEM without phenol red (Gibco, #21063), 0.1% BSA in a white, tissue culture-treated 384-well plate (Perkin Elmer) at 15,000 cells/well, unless indicated otherwise, and allowed to attach. The plate was centrifuged at 212 × g for 30 seconds to aid in even cell adherence. Compound treatments were initiated 4–5 hours after plating. Following indicated treatment times, media was removed from the plate using BioTek ELx405 plate washer. Additionally, 10 μL of Hank’s Balanced Salt solution (HBSS) with 0.1% BSA was added to each well, followed by 5 μL of glycyl-phenylalanyl-aminofluorocoumarin (GF-AFC; MP Biomedicals) diluted 1:1000 in 100 mM HEPES. Plates were then centrifuged at 212 × g for 30 seconds and then incubated at 37 °C for 30 minutes. Fluorescence was detected on a Synergy Neo2 multimode plate reader (BioTek/Agilent).\nOur primary assay using the HEK-293T RGS2-FBXO44 NanoBit cell line was extensively optimized to ensure maximum quality for screening. Coupling a fluorescent cell viability assay with our screen would allow us to rule out cytotoxic compounds while also hopefully reducing outliers from pipetting errors while plating cells. Thus, we multiplexed our NanoBit assay with cell viability using a cell-permeable fluorogenic protease substrate (glycyl-phenylalanyl-aminofluorocoumarin; GF-AFC; [Niles et al, 2007]), which can be combined with a luminescent readout without interfering with the luciferase signal. We previously utilized a similar multiplexing strategy in several screens ([Sjögren et al, 2012]; [Raveh et al, 2014]; [Sjögren et al, 2015]). We assessed and optimized treatment conditions (time, temperature, and reagent volume), cell density, buffer composition, and DMSO tolerance. In addition to the supplied proprietary LCS buffer (Promega), we also tested DMEM, 0.1% BSA, PBS, and HBSS (Supplemental Fig. 1A–C). […] The luminescent signal was stable up to 45 minutes after reagent addition, and we chose to run subsequent assays using 20 minutes of incubation time (Supplemental Fig. 1E). We also observed no effect on either viability or luminescence signal at DMSO concentrations <1% (Data not shown).\n(§1) HEK-293T-RGS2-FBXO44 NanoBit cells were treated for 16–18 hours with compound at 100 μM. This relatively high concentration was chosen because of the challenging nature of our assay (intracellular PPI inhibition). Parental HEK-293T cells were used as a negative control. […] Based on these criteria, 97 compounds were identified as hits from our primary screen (6.1% initial hit rate). To confirm hits, the same assay was repeated in triplicate, which delivered 34 compounds that reached the threshold for inhibition in at least 2 replicates with <25% cell toxicity (Fig. 2C; Supplemental Table 1), thus rendering a final hit rate of 2.1%."}, "[2]": {"target": "T1, RGS2-FBXO44 interaction (Homo sapiens, UniProt P41220)", "T1 construct": "expressed in transfected cells", "T1 sequence (P41220 1-211)": "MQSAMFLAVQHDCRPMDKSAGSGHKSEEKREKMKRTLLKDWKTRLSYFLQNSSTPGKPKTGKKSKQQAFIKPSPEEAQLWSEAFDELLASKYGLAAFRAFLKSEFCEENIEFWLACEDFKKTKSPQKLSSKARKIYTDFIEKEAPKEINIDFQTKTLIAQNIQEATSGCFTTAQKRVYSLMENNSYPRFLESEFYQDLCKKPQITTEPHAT", "experiment": "RGS2-FBXO44 NanoBit assay (HEK-293T RGS2-SmBiT/LgBiT-FBXO44 stable clone #6)", "format": "cell-based", "protocol": "Nano-Glo Live Cell Substrate (LCS) was diluted 1:50 in HBSS to form a 2× stock, and then, 15 μL was added to each well. Plates were shaken on an orbital shaker at 500 rpm for 5 minutes protected from light and then spun down at 1000 rpm for 30 seconds. Plates were incubated at room temperature for 20 minutes, and then, luminescence was detected on a Synergy Neo2 multimode plate reader.\nas §1\nFresh powders of 20 compounds were purchased and reassayed for their ability to inhibit the RGS2-FBXO44 NanoBit signal, using the same assay paradigm as in the primary screen (Fig. 3; Table 1). […] Nevertheless, all compounds were confirmed to inhibit the RGS2-FBXO44 NanoBit signal at this high concentration.\nWe next assessed the concentration-dependent effect of our 20 hits. Compounds were assayed at concentrations ranging from 500 to 0.01 μM. NanoBit luminescence (relative luminescence units) was normalized to viability (RFU) and presented as a percentage of untreated cells."}}}
{"smiles": "CCC1CCCCN1S(=O)(=O)c1cc(Br)ccc1OC", "note": "(stereo not drawn) [Compound 10]", "values": [{"measurement": "Viability (% of Control)", "setting": "[1]", "result": "69.3∗∗∗∗ % of Control"}, {"measurement": "% Inhibition @ 100 μM of RGS2-FBXO44 NanoBit signal", "setting": "[2]; 100 μM, 16–18 hours, fresh powder, luminescence normalized to viability, vs nontreated cells", "result": "71.7∗∗∗∗ %"}, {"measurement": "IC50", "setting": "[2]; concentrations 500 to 0.01 μM, RLU normalized to viability (RFU), read-out: IC50 (μM), inhibition of RGS2-FBXO44 NanoBit signal", "result": 19.6, "unit": "µM"}]}
